Laboratory results reported in patent publication US20050197350A1, “Novel quinoline, tetrahydroquinazoline, and pyrimidine derivatives and methods of treatment related to the use thereof” (TAISHO PHARMACEUTICAL CO., LTD., priority 2003, published 2005).

System: MCH receptors
Assay: MCH receptor activity class (method not given)
[1] = class by percent of control at 10^-7 M or IC50
[2] = class by percent of control at 10^−7 M or IC50
[3] = MCH receptor, class by percent of control at 10^-7 M or IC50
[4] = MCH receptor activity class 1-3 (percent of control at 10^-7 M or IC50)

In the case of `Cc1ccc(-c2ccc(C(=O)N[C@H]3CC[C@@H](Nc4cc(N(C)C)c5ccccc5n4)CC3)o2)c([N+](=O)[O-])c1` [compound 687], the class [1] is reported as 3 (Class 3 The value of percent of control at 10^−7 M was more than 60% or the value of IC50 was more than 200 nM.).
`COc1cc(C)c(CNC[C@H]2CC[C@@H](Nc3nccc(N(C)C)n3)CC2)cc1C` [compound 1316] was tested, and the class [1] was 2 (Class 2: The value of percent of control at 10^−7 M was from 40% to 60% or the value of IC′50 was from 50 nM to 200 nM.).
With `CN(C)c1nc(N[C@H]2CC[C@@H](NCCN(CCC#N)c3ccccc3)CC2)nc2c1CCCC2` [compound 1490] the class [1] was 1 (Class 1: The value of percent of control at 10^−7 M was less than 40% or the value of IC50 was less than 50 nM.).
With `Cc1cnc(N[C@H]2CC[C@@H](C(=O)N[C@H](C)c3ccc(Cl)cc3)CC2)nc1N(C)C` [compound 2778, cis-N-[(1R)-1-(4-chlorophenyl)ethyl]-4-{[4-(dimethylamino)-5-methylpyrimidin-2-yl]amino}cyclohexanecarboxamide] the class [2] was 1 (Class 1: The value of percent of control at 10^−7 M was less than 40% or the value of IC50 was less than 50 nM.).
For `Cc1cnc(N[C@H]2CC[C@@H](NC(=O)c3cc(Br)cc(Br)c3)CC2)nc1N(C)C` [compound 2933], the class [2] was 1 (Class 1: The value of percent of control at 10^−7 M was less than 40% or the value of IC50 was less than 50 nM.).
In the case of `CN(C)c1cc(N[C@H]2CC[C@@H](CNC(=O)OCc3ccccc3)CC2)nc2ccccc12` [compound 1571], the class (activity class 1-3: percent of control at 10^-7 M or IC50) is reported as 3 (Class 3 The value of percent of control at 10^−7 M was more than 60% or the value of IC50 was more than 200 nM.).
For `CCCCCCNC(=S)N[C@H]1CC[C@@H](Nc2nc3c(c(N(C)C)n2)CCCC3)CC1` [compound 1942], the class [3] was 3 (Class 3 The value of percent of control at 10^−7 M was more than 60% or the value of IC50 was more than 200 nM.).
For `CCc1cccc(C)c1NC(=S)N[C@H]1CC[C@@H](Nc2nccc(N(C)C)n2)CC1` [compound 2325], the class [4] was 3 (Class 3 The value of percent of control at 10^−7 M was more than 60% or the value of IC50 was more than 200 nM.).
For `CSc1ccc(NC(=O)N[C@H]2CC[C@@H](Nc3nccc(N(C)C)n3)CC2)cc1` [compound 2185], the class [1] was 3 (Class 3 The value of percent of control at 10^−7 M was more than 60% or the value of IC50 was more than 200 nM.).
For `CN(C)c1nc(N[C@H]2CC[C@@H](CNC(=O)Cc3ccc(F)cc3)CC2)nc2c1CCCC2` [compound 630], the class [1] was 3 (Class 3 The value of percent of control at 10^−7 M was more than 60% or the value of IC50 was more than 200 nM.).
With `Cc1cc(C(=O)NC[C@H]2CC[C@@H](Nc3ncc(C)c(N(C)C)n3)CC2)ccc1F` [compound 2696] the class [2] was 2 (Class 2: The value of percent of control at 10^−7 M was from 40% to 60% or the value of IC′50 was from 50 nM to 200 nM.).
`CN(C)c1nc(N[C@H]2CC[C@@H](CNCC=C(c3ccccc3)c3ccccc3)CC2)nc2c1CCCC2` [compound 1400] was tested, and the class [1] was 1 (Class 1: The value of percent of control at 10^−7 M was less than 40% or the value of IC50 was less than 50 nM.).
With `Cc1cc(N(C)C)nc(N[C@H]2CC[C@@H](NC(=O)c3ccc(C(F)(F)F)c(F)c3)CC2)n1` [compound 2960, N-(cis-4-{[4-(dimethylamino)-6-methylpyrimidin-2-yl]amino}cyclohexyl)-3-fluoro-4-(trifluoromethyl)benzamide] the class [2] was 2 (Class 2: The value of percent of control at 10^−7 M was from 40% to 60% or the value of IC′50 was from 50 nM to 200 nM.).
`CN(C)c1ccnc(N[C@H]2CC[C@@H](NC(=S)Nc3ccc4c(c3)OCCO4)CC2)n1` [compound 2349] was tested, and the class [4] was 3 (Class 3 The value of percent of control at 10^−7 M was more than 60% or the value of IC50 was more than 200 nM.).
`Cc1cc(C)c(NC(=O)Nc2ccc(OC(F)(F)F)cc2)c(C(=O)N[C@H]2CC[C@@H](Nc3cc(N(C)C)c4ccccc4n3)CC2)c1` [compound 718] was tested, and the class [1] was 3 (Class 3 The value of percent of control at 10^−7 M was more than 60% or the value of IC50 was more than 200 nM.).
`Cc1cc(N(C)C)nc(N[C@H]2CC[C@@H](NC(=O)c3cccc(F)c3)CC2)n1` [compound 2953, N-(cis-4-{[4-(dimethylamino)-6-methylpyrimidin-2-yl]amino}cyclohexyl)-3-fluorobenzamide] was tested, and the class [2] was 2 (Class 2: The value of percent of control at 10^−7 M was from 40% to 60% or the value of IC′50 was from 50 nM to 200 nM.).
`Cc1cc(C)c(NC(=O)NC[C@H]2CC[C@@H](Nc3nccc(N(C)C)n3)CC2)c(C)c1` [compound 2413, N-[(cis-4-{[4-(dimethylamino)pyrimidin-2-yl]amino}cyclohexyl)methyl]-N′-mesitylurea] was tested, and the class [4] was 1 (Class 1: The value of percent of control at 10^−7 M was less than 40% or the value of IC50 was less than 50 nM.).
For `COc1cc(OC)c(OC)cc1CNC[C@H]1CC[C@@H](Nc2nc3c(c(N(C)C)n2)CCCC3)CC1` [compound 1417], the class [1] was 1 (Class 1: The value of percent of control at 10^−7 M was less than 40% or the value of IC50 was less than 50 nM.).
In the case of `Cc1cc(Br)ccc1NC(=S)N[C@H]1CC[C@@H](Nc2nc3c(c(N(C)C)n2)CCCC3)CC1` [compound 1764, N-(4-bromo-2-methylphenyl)-N′-(cis-4-{[4-(dimethylamino)-5,6,7,8-tetrahydroquinazolin-2-yl]amino}cyclohexyl)thiourea], the class [1] is reported as 1 (Class 1: The value of percent of control at 10^−7 M was less than 40% or the value of IC50 was less than 50 nM.).
In the case of `CN(C)c1cc(N[C@H]2CC[C@@H](NC(=O)c3cccc(Cl)c3F)CC2)nc2ccccc12` [compound 59], the class [3] is reported as 3 (Class 3 The value of percent of control at 10^−7 M was more than 60% or the value of IC50 was more than 200 nM.).
For `CN(C)c1nc(N[C@H]2CC[C@@H](NC(=O)Nc3ccc([N+](=O)[O-])cc3Cl)CC2)nc2c1CCCC2` [compound 1854], the class [1] was 3 (Class 3 The value of percent of control at 10^−7 M was more than 60% or the value of IC50 was more than 200 nM.).
`Cc1cc(CN[C@H]2CC[C@@H](Nc3cc(N(C)C)c4ccccc4n3)CC2)cc(C)c1O` [compound 1103] was tested, and the class (activity class per percent of control at 10^-7 M or IC50) was 3 (Class 3 The value of percent of control at 10^−7 M was more than 60% or the value of IC50 was more than 200 nM.).
In the case of `CN(C)c1nc(N[C@H]2CC[C@@H](NC(=S)NCCc3ccccc3)CC2)nc2c1CCCC2` [compound 1965], the class [3] is reported as 3 (Class 3 The value of percent of control at 10^−7 M was more than 60% or the value of IC50 was more than 200 nM.).
With `Cc1cc(=O)oc2c(OCC(=O)N[C@H]3CC[C@@H](Nc4cc(N(C)C)c5ccccc5n4)CC3)cccc12` [compound 145] the class [3] was 3 (Class 3 The value of percent of control at 10^−7 M was more than 60% or the value of IC50 was more than 200 nM.).
With `COc1ccc(CC(=O)N[C@H]2CC[C@@H](Nc3cc(N(C)C)c4ccccc4n3)CC2)cc1` [compound 69] the class [3] was 3 (Class 3 The value of percent of control at 10^−7 M was more than 60% or the value of IC50 was more than 200 nM.).
With `CN(C)c1nc(N[C@H]2CC[C@@H](CNCc3ccc(CO)o3)CC2)nc2c1CCCC2` [compound 1397] the class [1] was 3 (Class 3 The value of percent of control at 10^−7 M was more than 60% or the value of IC50 was more than 200 nM.).
For `Cc1cnc(N[C@H]2CC[C@@H](CNC(=O)c3ccc(C#N)cc3)CC2)nc1N(C)C` [compound 2701], the class [2] was 2 (Class 2: The value of percent of control at 10^−7 M was from 40% to 60% or the value of IC′50 was from 50 nM to 200 nM.).
